Reference: PubChem BioAssay (NCI)
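Exposure lasted 48 hours, with cells grown in 96-well plates and compounds tested at five concentrations. TGI marks complete inhibition of growth.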

How the values were obtained:
Test in all cases: NCI-60 cell line screen, 48 h
MOLT-4 leukemia = system: MOLT-4 leukemia
MDA-MB-435 = system: MDA-MB-435
COLO 205 colon = system: COLO 205 colon
MDA-N = system: MDA-N
UACC-62 melanoma = system: UACC-62 melanoma
SK-MEL-2 melanoma = system: SK-MEL-2 melanoma
MCF7 breast = system: MCF7 breast
SF-295 CNS = system: SF-295 CNS
ACHN renal = system: ACHN renal
T-47D breast = system: T-47D breast
CAKI-1 renal = system: CAKI-1 renal

## COc1ccc(/C=C/C(=O)NCC(NC(=O)/C=C/c2ccc(OC)c(OC)c2)C(=O)O)cc1OC (stereo not drawn)
MOLT-4 leukemia
  TGI: > 100 µM
MDA-MB-435
  TGI: > 100 µM
COLO 205 colon
  TGI: > 100 µM
MDA-N
  TGI: > 100 µM
UACC-62 melanoma
  TGI: > 100 µM
SK-MEL-2 melanoma
  TGI: > 100 µM
MCF7 breast
  TGI: > 100 µM
SF-295 CNS
  TGI: > 100 µM
ACHN renal
  TGI: > 100 µM
T-47D breast
  TGI: > 100 µM
CAKI-1 renal
  TGI: > 100 µM

## O=C1C(NCCc2cc(Br)c(O)c(Br)c2)=CC(=O)c2ncccc21
MOLT-4 leukemia
  TGI: 24.1 µM
MDA-MB-435
  TGI: 3.09 µM
COLO 205 colon
  TGI: 19.2 µM
MDA-N
  TGI: 3.34 µM
UACC-62 melanoma
  TGI: 3.51 µM
SK-MEL-2 melanoma
  TGI: 29.9 µM
MCF7 breast
  TGI: 17.4 µM
SF-295 CNS
  TGI: 12.9 µM
ACHN renal
  TGI: 24.9 µM
T-47D breast
  TGI: 52 µM
CAKI-1 renal
  TGI: 25 µM

## CC(C#N)Nc1ccc(Oc2ccc(C(C)(C)c3ccc(Oc4ccc(NC(C)C#N)cc4)cc3)cc2)cc1 (stereo not drawn)
MOLT-4 leukemia
  TGI: > 100 µM
MDA-MB-435
  TGI: > 100 µM
COLO 205 colon
  TGI: > 100 µM
MDA-N
  TGI: > 100 µM
UACC-62 melanoma
  TGI: > 100 µM
SK-MEL-2 melanoma
  TGI: > 100 µM
MCF7 breast
  TGI: > 100 µM
SF-295 CNS
  TGI: > 100 µM
ACHN renal
  TGI: > 100 µM
T-47D breast
  TGI: > 100 µM
CAKI-1 renal
  TGI: > 100 µM

## CN(C)c1ccc(C2CC(=O)CC(c3ccc(N(C)C)cc3)C23C(=O)NC(=O)NC3=O)cc1 (stereo not drawn)
MOLT-4 leukemia
  TGI: > 25 µM
MDA-MB-435
  TGI: > 25 µM
COLO 205 colon
  TGI: > 25 µM
MDA-N
  TGI: > 25 µM
UACC-62 melanoma
  TGI: > 25 µM
SK-MEL-2 melanoma
  TGI: > 25 µM
MCF7 breast
  TGI: > 25 µM
SF-295 CNS
  TGI: > 25 µM
ACHN renal
  TGI: > 25 µM
T-47D breast
  TGI: > 25 µM
CAKI-1 renal
  TGI: > 25 µM

## NC(=S)N/N=C/c1cc(CN2CCOCC2)c(N)cn1
MOLT-4 leukemia
  TGI: > 100 µM
MDA-MB-435
  TGI: > 100 µM
COLO 205 colon
  TGI: > 100 µM
MDA-N
  TGI: > 100 µM
UACC-62 melanoma
  TGI: > 100 µM
SK-MEL-2 melanoma
  TGI: > 100 µM
MCF7 breast
  TGI: > 100 µM
SF-295 CNS
  TGI: > 100 µM
ACHN renal
  TGI: > 100 µM
T-47D breast
  TGI: > 100 µM
CAKI-1 renal
  TGI: > 100 µM

## COc1ccc2oc(=N)c(C(N)=S)cc2c1
MOLT-4 leukemia
  TGI: > 100 µM
MDA-MB-435
  TGI: > 100 µM
COLO 205 colon
  TGI: > 100 µM
MDA-N
  TGI: 67.5 µM
UACC-62 melanoma
  TGI: 34 µM
SK-MEL-2 melanoma
  TGI: 38.3 µM
MCF7 breast
  TGI: > 100 µM
SF-295 CNS
  TGI: > 100 µM
ACHN renal
  TGI: 79.2 µM
T-47D breast
  TGI: 99.3 µM
CAKI-1 renal
  TGI: > 100 µM

## O=c1nc2n(CCO)c(-c3ccccc3)c(-c3ccccc3)nc-2c(=O)[nH]1
MOLT-4 leukemia
  TGI: > 100 µM
MDA-MB-435
  TGI: > 100 µM
COLO 205 colon
  TGI: > 100 µM
MDA-N
  TGI: > 100 µM
UACC-62 melanoma
  TGI: > 100 µM
SK-MEL-2 melanoma
  TGI: > 100 µM
MCF7 breast
  TGI: > 100 µM
SF-295 CNS
  TGI: > 100 µM
ACHN renal
  TGI: > 100 µM
T-47D breast
  TGI: > 100 µM
CAKI-1 renal
  TGI: > 100 µM

## CCCCCCN(C(=O)Oc1ccccc1)C(C#N)c1ccccc1 (stereo not drawn)
MOLT-4 leukemia
  TGI: > 100 µM
MDA-MB-435
  TGI: > 100 µM
COLO 205 colon
  TGI: > 100 µM
MDA-N
  TGI: > 100 µM
UACC-62 melanoma
  TGI: > 100 µM
SK-MEL-2 melanoma
  TGI: > 100 µM
MCF7 breast
  TGI: > 100 µM
SF-295 CNS
  TGI: > 100 µM
ACHN renal
  TGI: > 100 µM
T-47D breast
  TGI: > 100 µM
CAKI-1 renal
  TGI: > 100 µM
